# Patent US12691070B2, “Cationic lipids and preparation method thereof” (RiboX Therapeutics HK Limited, priority 2023, dated 2026)
# Key:
# RAW 264.7 cells [1] = assay: In vitro expression of firefly-luciferase, RAW 264.7; type: cell-based
# In short: (§1)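 First, cells were dosed with RNA lipid nanoparticles encoding firefly luciferase (100 ng/mL). Second, at 72 h they were washed and lysed. Third, lysate luciferase activity was read with a luminometer.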
# [2] = LNP size and polydispersity index (PDI) by dynamic light scattering; type: physicochemical; settings: for Size: in nm (unit assumed)
# In short: (§2)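 Ribogreen fluorescence with and without Triton X-100 gave encapsulation as 100% − (intact/lysed) signal; DLS size, PDI and zeta potential measured on a Zetasizer. Particles: 50:10:38.5:1.5 lipid mix, luciferase circRNA or mRNA, lipid:nucleotide 15 or 6, microfluidic assembly at pH 4.5, PBS-dialyzed.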
# Hep G2 cells [3] = assay: In vitro toxicity (CellTiter-Glo cell viability), Hep G2; type: cell-based;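 also: percent of untreated cells luminescence signal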
# In short: (§3)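 RNA-LNPs 1 μg/mL; 72 h post-transfection; CellTiter-Glo luminescence read-out; % viability calculated from signal.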
# RAW 264.7 cells [4] = assay: In vitro toxicity (CellTiter-Glo cell viability), RAW 264.7; type: cell-based;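 also: percent of untreated cells luminescence signal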
# In short: as §3
# Hep G2 cells [5] = assay: In vitro expression of firefly-luciferase, Hep G2; type: cell-based
# In short: as §1
# [6] = LNP zeta potential (Zetasizer); type: physicochemical
# In short: as §2
# [7] = RNA encapsulation efficacy by Quant-IT Ribogreen kit; type: physicochemical; settings: for Encapsulation Efficiency %: LNP with cirRNA (SEQ ID NO: 1)
# In short: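 Dynamic light scattering and zeta potential measurements were run on PBS-dialyzed LNPs, which had been formed by microfluidic mixing at 12 ml/min with final lipid at 1.5 mM to 6 mM. RNA content and percent encapsulation were determined by Ribogreen with and without Triton X-100.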
# BALB/C mice = assay: In vivo expression, whole-body luminescence (IVIS)
# Description: 6-8 week old, female BALB/C mice were injected with 0.05 mg*kg-1 of RNA-LNPs encoding for firefly-luciferase by intravenous injection. At 6 hours post injection, animals were intraperitoneally injected with 15 mg/ml of Luciferin substrate and whole-body luminescence was determined by a bioluminescent in vivo imaging system (IVIS).
# [8] = cirRNA (SEQ ID NO: 1) LNPs, firefly-luciferase luminescence, RAW 264.7 cells
# [9] = cirRNA (SEQ ID NO: 1) LNPs, Hep G2 cells
# [10] = cirRNA (SEQ ID NO: 1) LNPs, RAW 264.7 cells
# [11] = cirRNA (SEQ ID NO: 1) LNPs, firefly-luciferase luminescence, Hep G2 cells
# [12] = cirRNA (SEQ ID NO: 1) LNPs, BALB/C mice
# [13] = mRNA (SEQ ID NO: 2) LNP, 100 ng/mL, 72 hours post transfection, luciferase activity
# [14] = mRNA (SEQ ID NO: 2) LNP, 1 μg/mL, 72 hours post transfection
Structure (SMILES),In vitro Expression RAW (RAW 264.7 cells [1]; [8]),PDI ([2]; LNP with cirRNA (SEQ ID NO: 1)),Size ([2]; LNP with cirRNA (SEQ ID NO: 1)),In vitro Viability HepG2 (Hep G2 cells [3]; [9]) [%],In vitro Viability RAW (RAW 264.7 cells [4]; [10]) [%],In vitro Expression HepG2 (Hep G2 cells [5]; [11]),Zeta (mV) ([6]; LNP with cirRNA (SEQ ID NO: 1)),Encapsulation Efficiency % [7] [%],In vivo Expression (Whole Body) (BALB/C mice; [12]),In vitro Expression RAW (RAW 264.7 cells [1]; [13]),PDI ([2]; LNP with mRNA (SEQ ID NO: 2)),Size ([2]; LNP with mRNA (SEQ ID NO: 2)),In vitro Viability HepG2 (Hep G2 cells [3]; [14]) [%],In vitro Viability RAW (RAW 264.7 cells [4]; [14]) [%],In vitro Expression HepG2 (Hep G2 cells [5]; [13]),Zeta (mV) ([6]; LNP with mRNA (SEQ ID NO: 2)),Encapsulation Efficiency ([7]; LNP with mRNA (SEQ ID NO: 2)) [%],"In vivo Expression (Whole Body) (BALB/C mice; mRNA (SEQ ID NO: 2) LNP, 0.05 mg*kg-1 intravenous, 6 hours post injection)"
CCCCCCCCCCCOC(=O)CCCCCN(CCCCCCCC(=O)OC(CCCCCCCC)CCCCCCCC)CCOC(=O)NCCCn1ccnc1 [Lipid 163],3.32E+03,0.1586,61.87,92,88,5.77E+04,−3.271,79,7.96E+06,,,,,,,,,
CCCCCCCCC(CCCCCCCC)OC(=O)CCCCCCCN(CCCCCCCCOC(=O)C(CCCCCC)CCCCCCCC)CCCOC(=O)NCCN1CCN(C)CC1 (centres unmarked) [Lipid 347],4.27E+04,0.2462,90.56,92,96,1.04E+06,−0.6677,94,7.61E+06,,,,,,,,,
"CCCCC/C=C\C/C=C\CCCCCCCCN(CCCCCCCC/C=C\C/C=C\CCCCC)CCOC(=O)[C@@H](N)Cc1c[nH]cn1 [Lipid B, reference compound]",,0.2623,93.61,,,8.71E+05,3.811,88,,1.32E+05,0.2472,80.28,97,92,4.21E+05,0.02157,86.87,3.42E+08
"CCCCC/C=C\C/C=C\CCCCCCCCN(CCCCCC(=O)OCC(CCCCCCCC)CCCCCCCCCC)CCOC(=O)NCc1ncc[nH]1 (centres unmarked) [Lipid 76, 2-octyldodecyl 6-((2-((((1H-imidazol-2-yl)methyl)carbamoyl)oxy)ethyl)((9Z,12Z)-octadeca-9,12-dien-1-yl)amino)hexanoate]",5.53E+02,0.1484,137.8,121,86,1.22E+04,0.03131,96,2.55E+05,,,,,,,,,
CCCCCCCC/C=C\CCCCCCCCN(CCCCCCCCOC(=O)C(CCCCCC)CCCCCCCC)CCOC(=O)NCCN(C)C (centres unmarked) [Lipid 211],2.36E+05,0.2243,97.77,90,91,1.14E+07,7.113,94,1.09E+07,,,,,,,,,
CCCCCCCCCCC(CCCCCCCC)COC(=O)CCCCCN(CCCCCC(=O)OCC(CCCCCCCC)CCCCCCCCCC)CCOC(=O)NCCCN(C)C (centres unmarked) [Lipid 166],1.48E+06,0.2013,71.24,22,12,2.17E+07,4.157,78,6.43E+05,,,,,,,,,
CCCCCCCCCC(=O)OCCCCCCCCN(CCCCCCCCOC(=O)CCCCCCCCC)CCOC(=O)NCCN(C)C [Lipid 202],3.35E+02,0.1932,60.75,94,92,2.49E+05,16.36,93,2.33E+05,,,,,,,,,
CCCCCCCCC(CCCCCCCC)OC(=O)CCCCCCCN(CCCCCCCCOC(=O)C(CCCCCC)CCCCCCCC)CCCOC(=O)NCCCN(CC)CC (centres unmarked) [Lipid 346],1.46E+05,0.264,111.1,73,93,1.02E+06,−0.00452,95,3.59E+06,,,,,,,,,
CCCCCCCC/C=C\CCCCCCCCN(CCCCCCCCOC(=O)C(CCCCCC)CCCCCCCC)CCOC(=O)NCCCN(C)C (centres unmarked) [Lipid 216],3.31E+05,0.4093,75.92,76,75,1.59E+07,11.61,96,1.34E+06,,,,,,,,,
"CCCCCCCCCCCOC(=O)CCCCCN(CCCCCC(=O)OCCCCCCCCCCC)CCOC(=O)NCCN1CCCCC1 [Lipid 150, diundecyl 6,6′-((2-(((2-(piperidin-1-yl)ethyl)carbamoyl)oxy)ethyl)azanediyl)dihexanoate]",6.81E+02,0.05565,91.37,114,104,1.44E+04,17.84,79,7.27E+05,,,,,,,,,
CCCCC/C=C\CCOC(=O)CCCCCN(CCCCCCCCOC(=O)C(CCCCCC)CCCCCCCC)CCOC(=O)NCCN(C)C (centres unmarked) [Lipid 189],2.71E+02,0.4058,84.04,89,1,9.85E+04,18.88,95,1.79E+06,,,,,,,,,
